From publication PMC7922564, “Molecular Insights into an Antibiotic Enhancer Action of New Morpholine-Containing 5-Arylideneimidazolones in the Fight against MDR Bacteria” (International Journal of Molecular Sciences, 2021)
Several values for one entry are separate records, joined by “and”; a condition that tells them apart may be missing. Equal entries are not always repeated. Where two headings read alike, the source gives them in different places.

Tests used:
[1] = test system: K. aerogenes CM-64 (overexpression of AcrAB-TolC); assay: MIC of compounds, K. aerogenes CM-64; format: cell-based; conditions: Klebsiella aerogenes, read-out: Minimal Inhibitory Concentration (MIC)
Description: (§1) A subset of compounds, namely 7, 12–16, 19, 20, was also examined for the potential to increase the effectiveness of the antibiotics chloramphenicol, erythromycin, doxycycline, and the fluoroquinolone antibiotic norfloxacin, which all are substrates for AcrAB-TolC in K. aerogenes. In addition to strain Ea-289, the adjuvant-like effect of the compounds was investigated in strain CM-64, which also overexpresses the AcrAB-TolC efflux pump, although it has no changes in porin content, and in the Ea-289 derivatives, i.e., Ea-294 and Ea-308, which are devoid of AcrAB (Table S17, Supplementary).
(§2) Determination of MIC values, i.e., intrinsic antibacterial activity, of products and antibiotics (oxacillin, ampicillin, vancomycin, ciprofloxacin, and erythromycin) in the presence and absence of compounds tested was conducted by the use of a standard 2-fold microdilution method in cation-adjusted Mueller Hinton broth following the Clinical and Laboratory Standards Institute (CLSI) guidelines. The MIC values were detected using an Infinite M200 pro Tecan microplate reader (Tecan® France, SA-Lyon, France). MIC determinations were conducted in 96-well microtiter plates and repeated 3–4 times.
(§3) MIC values of 5-arylideneimidazolone derivatives were determined following CLSI recommendations as in the methods described for S. aureus (Section 3.3.1).

[2] = test system: K. aerogenes Ea-289 (overexpression of AcrAB-TolC); assay: MIC of compounds, K. aerogenes Ea-289; format: cell-based; conditions: Klebsiella aerogenes
Description: At first, MIC values of compounds were determined (Table S15, Supplementary). Next, their abilities to reduce MICs of the AcrAB-TolC substrates doxycycline (a tetracycline-class antibiotic) and erythromycin were studied (Table S16, Supplementary). […]
as §2, §3

K. aerogenes Ea-289 = assay: MIC reduction assay (antibiotic adjuvant), K. aerogenes Ea-289; format: cell-based, Klebsiella aerogenes;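 further: compound at no more than one quarter of its own MIC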
Description: At first, MIC values of compounds were determined (Table S15, Supplementary). Next, their abilities to reduce MICs of the AcrAB-TolC substrates doxycycline (a tetracycline-class antibiotic) and erythromycin were studied (Table S16, Supplementary).
as §1
(§4) Initially, MICs of a series of imidazolone derivatives were assessed against susceptible (reference) and MDR strains of staphylococci. Next, MIC values of the aforementioned antibiotics were determined in the absence and presence of imidazolone derivatives to assess the chemosensitizing effect of these compounds. […] 5-arylideneimidazolones and 5-arylidenethiazolones, which precipitated after addition to bacterial suspension in MH II medium, were tested at the highest concentrations at which precipitation was not observed. […] Antibacterial activity of compounds and antibiotics ampicillin, vancomycin, ciprofloxacin, and erythromycin was recorded as the lowest concentration of molecules able to inhibit bacterial growth after 18 h incubation at 37 °C. The incubation of bacterial strains exposed to oxacillin paired with compounds tested was conducted at 35 °C and extended to 24 h due to frequent occurrence of heterogeneity among MRSA strains. The results are presented as activity gain (A) parameter which was calculated as ratio of MIC of a certain antibiotic (MICAnt) to its MICAnt+Comp, observed in combination with a tested compound (7, 12–16, 19, or 20; Equation (1)). (1) A=(MICAnt/MICAnt+Comp)
as §3

K. aerogenes CM-64 = assay: MIC reduction assay (antibiotic adjuvant), K. aerogenes CM-64; format: cell-based, Klebsiella aerogenes; conditions: doxycycline, chloramphenicol, norfloxacin, erythromycin;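 further: compound at no more than one quarter of its own MIC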
Description: as §1, §4, §3

S. aureus ATCC 25923 = assay: MIC determination (microdilution), S. aureus ATCC 25923; format: cell-based, Staphylococcus aureus; conditions: for MIC: Staphylococcus aureus, ATCC25923, unstarred values of column MIC value/no precipitation, read-out: MIC value
Description: as §2, §4

[3] = test system: K. aerogenes Ea-294, Ea-308 (devoid of AcrAB); assay: MIC of compounds, K. aerogenes Ea-294, Ea-308; format: cell-based; conditions: Klebsiella aerogenes, read-out: Minimal Inhibitory Concentration (MIC)
Description: as §1, §2, §3

MRSA 19449 = assay: MIC determination (microdilution), MRSA 19449; format: cell-based, Staphylococcus aureus; conditions: for MIC: Staphylococcus aureus, MRSA, no precipitation
Description: as §2, §4

[4] = test system: K. aerogenes Ea-294, Ea-308; assay: MIC reduction assay (antibiotic adjuvant), K. aerogenes Ea-294, Ea-308; format: cell-based, Klebsiella aerogenes; conditions: doxycycline, chloramphenicol, norfloxacin, erythromycin;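 further: compound at no more than one quarter of its own MIC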
Description: as §1, §4, §3

[5] = test system: AcrAB-TolC efflux pump in K. aerogenes strain Ea-289; assay: Real-time efflux (RTE) assay, 1,2'-dNA extrusion; format: cell-based, Klebsiella aerogenes; conditions: compound 100 µM; IE=100% total inhibition of efflux
Description: Compounds 7, 12–16, 19, and 20 were also assessed for their EPI property in K. aerogenes strain Ea-289 with the use of a real-time efflux (RTE) assay. Results for compounds 16 and 20 were previously described. The experiment is based on the measurement of the extrusion of a fluorescent dye from bacterial cells overproducing efflux pump transporters in the presence and absence of compounds tested. The dye used in this assay, 1,2’ –dinaphthylamine (1,2’-dNA), is a substrate for the AcrAB-TolC efflux pump, and is strongly fluorescent upon incorporation into a phospholipid bilayer, although it is almost non-fluorescent in an aqueous solution [37, 38].
A likewise strong blocking efficacy (IE = 83 %) was also noticed for compound 12, while the lowest inhibitory effect was found for compound 13 (IE = 23 %).
The inhibitory activity of 5-arylideneimidazolone derivatives towards AcrAB-TolC mediated efflux of 1,2’-dNA was detected in K. aerogenes strain Ea-289 by using a real-time fluorometric method. In a first step, bacterial cells were loaded with the environment-sensitive fluorescent membrane probe, 1,2’-dNA, in the presence of the EPI carbonyl cyanide m-chlorophenylhydrazone (CCCP) which inactivated the pump by dissipating membrane potential. Next, compounds tested were added at the concentration of 100 µM and the efflux was energizing by automated injection of glucose at a dose of 50 µM. The fluorescence intensity was measured in a microplate reader (Tecan) with an excitation wavelength of λex = 370 nm and an emission wavelength of λem = 420 nm.

[6] = Water solubility (UV spectroscopy); format: physicochemical
Description: Six representatives of 5-arylideneimidazolones (9–12, 15, 19) were chosen for the determination of water solubility. UV spectroscopy was used for the estimation of concentrations of compounds according to the method described earlier. Acquired UV absorbance, calculated means, and standard deviations for tested compounds are presented in Supplementary Table S18. Solubility results, presented in Table 6, point out that compounds from the same group (A or B, Table 1 and Table 2) with the two-ring aromatic moiety are more soluble than compounds with the fluorene motive (Group A: 9, 10, 11 vs. 12; Group B: 15 vs. 19). […] The most soluble of tested compounds was compound 15, which could be dissolved in water at a concentration of up to 205.502 mM/L.
Water solubility was obtained using UV spectroscopy method. Absorbance of tested solutions of compounds 9-12, 15, and 19, respectively in suitable dilution, in three repetitions as well as calculated arithmetic means, solubility and standard deviations are presented in Table S18. the solubility results […]
Table S18. Results of absorbance used for estimation of water solubility of tested compounds (9-12, 15, 19).
Abbreviations: A1, A2,and A3, UV absorbance in first, second, and third repetition; Amean, arithmetic mean of absorbance from three repetitions; s, standard deviation for absorbance; S, water solubility; SD – standard deviation for solubility. […]

[7] = Stability in acidic and basic conditions (TLC); format: physicochemical; conditions: for Number of TLC spots: 1 = stable
Description: Compounds 9–12, 15, and 19 were also tested for their stability in acidic and basic conditions. This assay was carried out for 48 h and samples were taken at six-time intervals (10 min, 1 h, 2 h, 3 h, 24 h, 48 h). Stability of the compounds was determined using the TLC method. […] In basic conditions, only compounds 10 and 15 were stable for 24 h. […] Results with details, including time of degradation of products obtained, are presented in the Supplementary (Tables S19 and S20). […]
VI. Stability in different pH conditions
Stability of chosen compounds (9-12, 15, and 19) were determined using the TLC method. Assays were performed in acidic and basic conditions and were carried out for 48 h. Samples were taken at six-time intervals (10 min., 1 h, 2 h, 3 h, 24 h, 48 h). […]
of spots observed on TLC, where 1 indicate that compound is stable (only TLC spot for proper compound was observed). Higher values point out how many products of degradation was observed, which can be calculating by subtracting one from number of spots.
Table S19. Results of chosen compounds (9-12, 15, 19) stability in acidic conditions.
Compound Number of TLC spots in defined time
Table S20. Results of chosen compounds (9-12, 15, 19) stability in basic conditions.

[8] = read-out: MIC value/no precipitation
[9] = read-out: Minimal Inhibitory Concentration (MIC)
[10] = doxycycline, chloramphenicol, norfloxacin, erythromycin

Row | Compound | MIC [2, 8] [µM] | A (activity gain) (K. aerogenes Ea-289; doxycycline) | A (activity gain) (K. aerogenes Ea-289; erythromycin) | MIC (S. aureus ATCC 25923) [µM] | MIC (MRSA 19449) [µM] | solubility [6] | Number of TLC spots ([7]; acidic conditions, 10 min) | Number of TLC spots ([7]; acidic conditions, 1 h) | Number of TLC spots ([7]; acidic conditions, 2 h) | Number of TLC spots ([7]; acidic conditions, 3 h) | Number of TLC spots ([7]; acidic conditions, 24 h) | Number of TLC spots ([7]; acidic conditions, 48 h) | Number of TLC spots ([7]; basic conditions, 10 min) | Number of TLC spots ([7]; basic conditions, 1 h) | Number of TLC spots ([7]; basic conditions, 2 h) | Number of TLC spots ([7]; basic conditions, 3 h) | Number of TLC spots ([7]; basic conditions, 24 h) | Number of TLC spots ([7]; basic conditions, 48 h) | also measured
1 | Cl.O=C1N=C(N2CCC(N3CCOCC3)CC2)N/C1=C\c1cccc2ccccc12 (hydrate or solvate) [Compound 11, (Z)-5-(Naphthalen-1-ylmethylene)-2-(4-Morpholinopiperidin-1-yl)-Imidazol-4(5H)-one Hydrochloride] |  |  |  |  |  |  |  |  |  |  |  |  |  |  |  |  |  |  | melting point: 244 to 249 °C
2 | O=C1NC(N2CCOCC2)=N/C1=C\c1ccc(-c2ccccc2)cc1 [Compound 7] | > 250 | 1 | 1 | 31.2 to 250 | 31.2 to 250 |  |  |  |  |  |  |  |  |  |  |  |  |  | MIC [1]: > 2000 µM; MIC [2, 9]: > 2000 µM; A (activity gain) (K. aerogenes Ea-289; [10]): 1; A (activity gain) (K. aerogenes CM-64): 1; MIC [3]: 2000 µM; A (activity gain) [4]: 1; Inhibition efficiency (IE) towards extrusion of 1,2'-dNA [5]: 59%
3 | O=C1NC(N2CCC(N3CCOCC3)CC2)=N/C1=C\c1ccc(-c2ccccc2)cc1 [Compound 8] | > 250 | 1 | 1 |  | 31.2 to 250 |  |  |  |  |  |  |  |  |  |  |  |  |  | 
4 | O=C1NC(N2CCC(N3CCOCC3)CC2)=N/C1=C\c1cccc(Oc2ccccc2)c1 [Compound 9] | > 250 | 1 | 1 | 31.2 to 250 | 31.2 to 250 | 1480 µg/mL and 3170 µM | 2 | 2 | 2 | 2 | 2 | 2 | 2 | 2 | 2 | 2 | 2 | 2 | 
5 | O=C1NC(N2CCC(N3CCOCC3)CC2)=N/C1=C\c1ccc(Oc2ccccc2)cc1 [Compound 10] | > 250 | 1 | 1 |  | 31.2 to 250 | 2680 µg/mL and 5740 µM | 1 | 1 | 1 | 1 | 1 | 2 | 1 | 1 | 1 | 1 | 1 | 2 | time stable ([7]; basic conditions): 24 h
6 | Cl.O=C1N=C(N2CCC(N3CCOCC3)CC2)N/C1=C\c1cccc2ccccc12 [Compound 11, (Z)-5-(Naphthalen-1-ylmethylene)-2-(4-Morpholinopiperidin-1-yl)-Imidazol-4(5H)-one Hydrochloride] | > 250 | 1 | 1 | 31.2 to 250 | 31.2 to 250 | 20200 µg/mL and 47300 µM | 1 | 1 | 1 | 1 | 1 | 2 | 1 | 2 | 2 | 2 | 2 | 2 | 
7 | O=C1NC(N2CCC(N3CCOCC3)CC2)=N/C1=C\c1c2ccccc2cc2ccccc12 [Compound 13] | > 250 | 1 | 1 | 31.2 to 250 | 31.2 to 250 |  |  |  |  |  |  |  |  |  |  |  |  |  | MIC [1]: > 2000 µM; MIC [2, 9]: > 2000 µM; A (activity gain) (K. aerogenes Ea-289; [10]): 1; A (activity gain) (K. aerogenes CM-64): 1; MIC [3]: 2000 µM; A (activity gain) [4]: 1; Inhibition efficiency (IE) towards extrusion of 1,2'-dNA [5]: 23%
8 | NC1=N/C(=C\c2ccc(Oc3ccccc3)cc2)C(=O)N1CCCN1CCOCC1 [Compound 17] | > 250 | 1 | 1 |  | 31.2 to 250 |  |  |  |  |  |  |  |  |  |  |  |  |  | 
9 | NC1=N/C(=C\c2cc3ccccc3c3ccccc23)C(=O)N1CCCN1CCOCC1 [Compound 21] | > 250 | 1 | 1 | 31.2 to 250 | 31.2 to 250 |  |  |  |  |  |  |  |  |  |  |  |  |  | 
10 | Cc1onc(-c2ccccc2)c1C(=O)N[C@@H]1C(=O)N2[C@@H]1SC(C)(C)[C@@H]2C(=O)O [oxacillin, reference compound] |  |  |  |  |  |  |  |  |  |  |  |  |  |  |  |  |  |  | MIC of the antibiotic alone (S. aureus ATCC 25923; oxacillin alone): 0.25 µg/mL; MIC of the antibiotic alone (MRSA 19449; oxacillin alone): 256 µg/mL
